Reference: patent US20070293512A1, “Condensed Pyrimidine Deriviative and Xanthine Oxidase Inhibitor” (priority 2004, published 2007)
Counter-ions that a name gives are not always drawn.

Experiments:
[1] = target: T1, Cow milk Xanthine Oxidase (Bos taurus, UniProt P80457); experiment: Xanthine oxidase inhibition, in vitro (oxidation of xanthine, absorbance at 290 nm); assay type: biochemical; conditions: xanthine 250 μM, 50 mM phosphate buffer pH 7.5, 30° C., 10 minutes
T1 construct: Cow milk Xanthine Oxidase (Roche); purchased Roche; host or cells: cow milk (natural source)
Procedure: The xanthine oxidase inhibiting action (in vitro test) of the compound of the invention was confirmed by measuring inhibition of oxidation of xanthine by xanthine oxidase, as described in Example 50. As is clear from Tables 11 and 12, the compounds of the invention show excellent xanthine oxidase inhibiting action.
Pharmacological Experiment 1 (In Vitro Measuring Method)
1. Preparation of Test Sample
The test compound was dissolved in dimethylsulfoxide and diluted with 50 mM phosphate buffer (pH 7.5), to give a solution of a predetermined concentration.
125 μL of each of the solutions of the test compound having different concentrations was added to 1 mL of a solution of Xanthine (SIGMA, 250 μM) in the 50 mM phosphor buffer (pH 7.5). The mixture was then pre-incubated at 30° C. for 5 min. Subsequently, to the pre-incubated mixture was added 125 μL of Cow milk Xanthine Oxidase (Roche) diluted with the 50 mM phosphate buffer (pH 7.5) to 70 mU/mL, and the mixture was subjected to reaction at 30° C. for 10 minutes. Then, 1N hydrochloric acid, (200 μL) was added to the reaction mixture to terminate the reaction. Subsequently, absorbance at OD 290 nm was measured by means of a spectrophotometer (Shimadzu UV-160A)., to obtain a inhibition ratio. The measured inhibition ration was used to obtain […]
The inhibition ratio was calculated according to the following formula: Inhibition ratio (%)=[1−(B−C)/(A−C)]×100 • A: absorbance of control • B: absorbance measured on a sample containing test compound • C: absorbance of blank (Test Results)

[2] = test system: in-plasma uric acid value; experiment: In vivo test: in-plasma uric acid value-inhibition after single oral administration to mouse; conditions: ICR mouse, blood one hour after administration; for In Vivo (%) TMX-67 (0.3 mg/kg): activity value relative to TMX-67 (0.3 mg/kg), single oral 0.3 mg/kg; for In Vivo (%) allopurinol (3 mg/kg): activity value relative to allopurinol (3 mg/kg), single oral 3 mg/kg
Procedure: The xanthine oxidase inhibiting action was. further confirmed in vivo tests by measuring the uric acid concentration in a plasma obtained from mouse into which the compound of the invention had been orally administered. See Example 51, Tables 11 and 12.
Pharmacological Experiment 2 (In Vivo Test)
The test compound suspended in 1% methylcellulose solution in an amount of 0.3 mg/kg or 3 mg/kg was administered to unfasted ICR mouse (7 W) by forced single oral administration. The blood was collected from main artery from the mouse under etherization after one hour from the administration. The plasma was separated from the collected blood in the conventional manner. The plasma was then subjected to measurement of uric acid value by the enzyme method by means of an automatic analytical apparatus (7060E), to obtain an in-plasma uric acid value-inhibition ratio in the test sample-administered group as compared with a ratio.obtained in the normal group.
Based on the obtained in-plasma uric acid inhibition ratio, activity values (%) relative to activity values obtained in the simultaneously conducted tests using TMX-67 (0.3 mg/kg) or allopurinol (3 mg/kg).

T1 sequence (P80457 whole entry): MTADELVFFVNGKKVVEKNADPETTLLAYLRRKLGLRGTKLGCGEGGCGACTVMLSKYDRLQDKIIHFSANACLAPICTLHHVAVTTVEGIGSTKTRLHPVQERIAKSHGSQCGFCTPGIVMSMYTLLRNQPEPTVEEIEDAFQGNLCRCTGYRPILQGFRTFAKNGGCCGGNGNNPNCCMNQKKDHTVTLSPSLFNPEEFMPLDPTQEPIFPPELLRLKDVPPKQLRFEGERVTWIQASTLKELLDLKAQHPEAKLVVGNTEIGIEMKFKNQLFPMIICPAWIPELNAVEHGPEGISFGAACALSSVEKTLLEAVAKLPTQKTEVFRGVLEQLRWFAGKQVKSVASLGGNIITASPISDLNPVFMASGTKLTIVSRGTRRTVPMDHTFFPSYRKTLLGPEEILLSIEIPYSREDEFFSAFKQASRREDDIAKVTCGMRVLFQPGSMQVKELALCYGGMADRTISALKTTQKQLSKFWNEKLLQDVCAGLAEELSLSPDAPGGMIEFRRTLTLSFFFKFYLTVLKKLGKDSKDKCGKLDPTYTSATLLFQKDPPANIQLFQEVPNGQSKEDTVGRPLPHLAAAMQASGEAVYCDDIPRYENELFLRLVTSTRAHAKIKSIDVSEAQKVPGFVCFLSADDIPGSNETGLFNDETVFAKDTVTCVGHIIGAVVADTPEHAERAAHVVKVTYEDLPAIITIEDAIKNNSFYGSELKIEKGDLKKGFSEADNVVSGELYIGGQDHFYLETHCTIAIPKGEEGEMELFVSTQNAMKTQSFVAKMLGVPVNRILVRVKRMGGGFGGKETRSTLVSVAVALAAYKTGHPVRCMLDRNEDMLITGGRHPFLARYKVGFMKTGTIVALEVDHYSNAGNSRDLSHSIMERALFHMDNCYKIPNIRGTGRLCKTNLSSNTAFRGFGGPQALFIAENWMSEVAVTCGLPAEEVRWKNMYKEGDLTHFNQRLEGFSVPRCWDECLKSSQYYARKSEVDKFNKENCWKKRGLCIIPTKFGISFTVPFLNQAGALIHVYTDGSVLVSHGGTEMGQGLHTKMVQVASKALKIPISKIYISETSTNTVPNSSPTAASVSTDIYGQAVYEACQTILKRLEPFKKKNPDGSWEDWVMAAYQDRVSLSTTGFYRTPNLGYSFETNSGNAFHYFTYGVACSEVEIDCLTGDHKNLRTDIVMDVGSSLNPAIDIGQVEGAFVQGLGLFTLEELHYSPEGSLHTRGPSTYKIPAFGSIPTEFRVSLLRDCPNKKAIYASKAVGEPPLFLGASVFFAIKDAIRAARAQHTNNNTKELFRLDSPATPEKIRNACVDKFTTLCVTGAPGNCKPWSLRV

IC50 [1] | Compound | In Vivo (%) TMX-67 (0.3 mg/kg) [2] | other results
30.2 nM | O=[N+]([O-])c1cc(-c2nc3c(O)ncnc3o2)ccc1Sc1ccc(Cl)cc1 [Example 6, 2-[4-(4-Chlorophenylthio)-3-nitrophenyl]-4-hydroxyoxazolo[5,4-d]pyrimidine] |  | melting point: > 250 °C
16.8 nM | O=[N+]([O-])c1cc(-c2nc3c(O)ncnc3s2)ccc1Oc1cccc(Cl)c1 [Example 17, 2-[4-(3-Chlorophenoxy)-3-nitrophenyl]-4-hydroxythiazolo[5,4-d]pyrimidine] |  | 
52.6 nM | O=[N+]([O-])c1cc(-c2nc3c(O)ncnc3s2)ccc1Oc1ccc(C(F)(F)F)cc1 [Example 16, 4-Hydroxy-2-[3-nitro-4-[4-(trifluoromethyl)-phenoxy]phenyl]thiazolo[5,4-d]pyrimidine] |  | 
27 nM | N#Cc1cc(-c2nc3c(O)ncnc3s2)ccc1Oc1ccc(Cl)cc1 [Example 23, 2-[4-(4-Chlorophenoxy)-3-cyanophenyl]-4-hydroxythiazolo[5,4-d]pyrimidine] |  | 
20.2 nM | O=[N+]([O-])c1cc(-c2nc3c(O)ncnc3s2)ccc1Oc1ccc(Cl)cc1 [Example 5, 2-[4-(4-Chlorophenoxy)-3-nitrophenyl]-4-hydroxythiazolo[5,4-d]pyrimidine] |  | melting point: 304 to 306 °C (dec.)
10.8 nM | N#Cc1cc(-c2nc3c([O-])ncnc3s2)ccc1Oc1ccccc1.[K+] [Example 49, 2-(3-Cyano-4-phenoxyphenyl)-4-hydroxy-thiazolo[5,4-d]pyrimidine potassium salt] | 140% | 
9.7 nM | O=C(O)c1ccc(Oc2ccc(-c3nc4c(O)ncnc4s3)cc2[N+](=O)[O-])cc1 [Example 26, 2-[4-(4-Carboxyphenoxy)-3-nitrophenyl]-4-hydroxythiazolo[5,4-d]pyrimidine] |  | 
18.7 nM | COC(=O)c1ccc(Oc2ccc(-c3nc4c(O)ncnc4s3)cc2[N+](=O)[O-])cc1 [Example 25, 4-Hydroxy-2-[4-(4-methoxycarbonylphenoxy)-3-nitrophenyl]thiazolo[5,4-d]pyrimidine] |  | 
19.2 nM | O=[N+]([O-])c1cc(-c2nc3c(O)ncnc3s2)ccc1Sc1ccc(Cl)cc1 [Example 3, 2-[4-(4-Chlorophenylthio)-3-nitrophenyl]-4-hydroxythiazolo[5,4-d]pyrimidine potassium salt] |  | 
8.5 nM | COc1ccc(Oc2ccc(-c3nc4c(O)ncnc4s3)cc2[N+](=O)[O-])cc1 [Example 14, 2-[4-(4-Methoxyphenoxy)-3-nitrophenyl]-4-hydroxythiazolo[5,4-d]pyrimidine] |  | 
18.5 nM | 2-[4-(4-Chlorophenoxy)-3-cyanophenyl]-4-hydroxythiazolo[5,4-d]pyrimidine potassium salt [Example 24] | 28% | 
18.6 nM | O=[N+]([O-])c1cc(-c2nc3c(O)ncnc3s2)ccc1Sc1ccccc1 [Example 4, 4-Hydroxy-2-(3-nitro-4-phenylthiophenyl)thiazolo[5,4-d]pyrimidine] |  | 
13.8 nM | O=[N+]([O-])c1cc(-c2nc3c(O)ncnc3s2)ccc1Sc1ccc(Cl)cc1 [Example 2, 2-[4-(4-Chlorophenylthio)-3-nitrophenyl]-4-hydroxythiazolo[5,4-d]pyrimidine] |  | 
22.6 nM | 2-[4-(4-Chlorophenylthio)-3-cyanophenyl]-4-hydroxythiazolo[5,4-d]pyrimidine potassium salt [Example 10] | 84% | 
36.8 nM | O=[N+]([O-])c1cc(-c2nc3c(O)ncnc3s2)ccc1Oc1ccc(-c2ccccc2)cc1 [Example 31, 4-Hydroxy-2-[3-nitro-4-(4-phenylphenoxy)-phenyl]thiazolo[5,4-d]pyrimidine] |  | 
119 nM | CC(C)c1ccc(Oc2ccc(-c3nc4c(O)ncnc4s3)cc2[N+](=O)[O-])cc1 [Example 30, 4-Hydroxy-2-[4-(4-isopropylphenoxy)-3-nitro-phenyl]thiazolo[5,4-d]pyrimidine] |  | 
14.6 nM | N#Cc1cc(-c2nc3c(O)ncnc3s2)ccc1Sc1ccc(Cl)cc1 [Example 9, 2-[4-(4-Chlorophenylthio)-3-cyanophenyl]-4-hydroxythiazolo[5,4-d]pyrimidine] |  | 
13.5 nM | O=[N+]([O-])c1cc(-c2nc3c(O)ncnc3o2)ccc1Oc1ccc(F)cc1 [Example 39, 2-[4-(4-Fluorophenoxy)-3-nitrophenyl]-4-hydroxyoxazolo[5,4-d]pyrimidine potassium salt] |  | 

Second part, the compound before the results:

Compound | IC50 [1] | In Vivo (%) TMX-67 (0.3 mg/kg) [2] | other results
O=[N+]([O-])c1cc(-c2nc3c(O)ncnc3s2)ccc1Oc1ccccc1F [Example 21, 2-[4-(2-Fluorophenoxy)-3-nitrophenyl]-4-hydroxythiazolo[5,4-d]pyrimidine] | 5.4 nM |  | 
2-[3-Cyano-4-(4-fluorophenoxy)phenyl]-4-hydroxythiazolo[5,4-d]pyrimidine potassium salt [Example 37] |  | 107% | 
O=[N+]([O-])c1cc(-c2nc3c(O)ncnc3s2)ccc1Oc1cccnc1.[K] [Example 33, 4-Hydroxy-2-[3-nitro-4-(3-pyridyloxy)-phenyl]thiazolo[5,4-d)pyrimidine potassium salt] |  | 48% | 
O=[N+]([O-])c1cc(-c2nc3c(O)ncnc3s2)ccc1Oc1ccccc1Cl [Example 18, 2-[4-(2-Chlorophenoxy)-3-nitrophenyl]-4-hydroxythiazolo[5,4-d]pyrimidine] | 8 nM |  | melting point: 283 to 288 °C (dec.)
O=[N+]([O-])c1cc(-c2nc3c([O-])ncnc3s2)ccc1Oc1ccccc1.[K+] [Example 8, 2-(3-Nitro-4-phenoxyphenyl)-4-hydroxythia-zolo[5,4-d]pyrimidine potassium salt] |  | 125% | 
2-[3-Cyano-4-(2-fluorophenoxy)phenyl]-4-hydroxythiazolo[5,4-d]pyrimidine potassium salt [Example 46] | 17.7 nM | 223% | 
O=[N+]([O-])c1cc(-c2nc3c([O-])ncnc3s2)ccc1Oc1ccc(F)cc1.[K+] [Example 13, 2-[4-(4-Fluorophenoxy)-3-nitrophenyl]-4-hydroxythiazolo[5,4-d]pyrimidine potassium salt] |  | 141% | 
O=[N+]([O-])c1cc(-c2nc3c(O)ncnc3s2)ccc1Oc1ccccc1 [Example 7, 4-Hydroxy-2-(3-nitro-4-phenoxyphenyl)-thiazolo[5,4-d]pyrimidine] | 8.8 nM |  | melting point: 278 to 281 °C (dec.)
O=C([O-])c1ccc(Oc2ccc(-c3nc4c([O-])ncnc4s3)cc2[N+](=O)[O-])cc1.[K+].[K+] [Example 27, 2-[4-(4-Carboxyphenoxy)-3-nitrophenyl]-4-hydroxythiazolo[5,4-d]pyrimidine dipotassium salt] |  |  | In Vivo (%) allopurinol (3 mg/kg) [2]: 36%
O=[N+]([O-])c1cc(-c2nc3c(O)ncnc3s2)ccc1Oc1ccc(Oc2ccccc2)cc1 [Example 28, 2-[3-Nitro-4-(4-phenoxyphenoxy)phenyl]-4-hydroxythiazolo[5,4-d]pyrimidine] | 67.6 nM |  | 
COc1ncnc2sc(-c3ccc(Oc4ccc(F)cc4)c(C#N)c3)nc12 [Example 40, 2-[3-Cyano-4-(4-fluorophenoxy)phenyl]-4-methoxythiazolo[5,4-d]pyrimidine] |  | 30% | In Vivo (%) allopurinol (3 mg/kg) [2]: 107%
O=[N+]([O-])c1cc(-c2nc3c(O)ncnc3s2)ccc1Oc1ccc(O)cc1 [Example 35, 4-Hydroxy-2-[4-(4-hydroxyphenoxy)-3-nitro-phenyl]thiazolo[5,4-d]pyrimidine] |  | 61% | 
N#Cc1cc(-c2nc3c([O-])ncnc3s2)ccc1Sc1ccc(F)cc1.[K+] [Example 43, 2-[3-Cyano-4-(4-fluorophenylthio)phenyl]-4-hydroxythiazolo[5,4-d]pyrimidine potassium salt] |  | 185% | 
O=[N+]([O-])c1cc(-c2nc3c(O)ncnc3s2)ccc1Oc1ccc(Cl)c2ccccc12 [Example 11, 2-[4-(4-Chloro-1-naphthoxy)-3-nitrophenyl]-4-hydroxythiazolo[5,4-d]pyrimidine] | 51.9 nM |  | 
O=[N+]([O-])c1cc(-c2nc3c(O)ncnc3s2)ccc1Nc1ccccc1 [Example 29, 2-(3-Nitro-4-phenylaminophenyl)-4-hydroxy-thiazolo[5,4-d]pyrimidine] | 24.6 nM |  | 
